Test results as given in ChEMBL document CHEMBL1201862, “PubChem BioAssay data set” (2004).
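Cells were grown in 96-well plates and exposed to each compound for 48 hours at five concentrations; endpoints were interpolated linearly between bracketing concentrations, or set to the highest concentration if not reached. At the GI50, growth is halved.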 Activity calls are given as the source filed them. Rule as the data show it: active = GI50 up to about 1.1 µM and inactive = higher.

How the values were obtained:
Experiment in all cases: NCI tumour cell line growth inhibition, 48 h
[1] = tested on: HT-29
[2] = tested on: OVCAR-5
[3] = tested on: SF-539
[4] = tested on: SNB-75
[5] = tested on: DMS-114
[6] = tested on: OVCAR-3
[7] = tested on: CCRF-CEM
[8] = tested on: RXF 393
[9] = tested on: SK-OV-3
[10] = tested on: IGROV-1
[11] = tested on: HCT-116
[12] = tested on: M14
[13] = tested on: A498
[14] = tested on: DLD-1
[15] = tested on: XF498
[16] = tested on: A549
[17] = tested on: SNB-19
[18] = tested on: HOP-18
[19] = tested on: LOX IMVI
[20] = tested on: RPMI-8226
[21] = tested on: 786-0
[22] = tested on: COLO 205
[23] = tested on: HCC 2998
[24] = tested on: SF-268
[25] = tested on: NCI-H23
[26] = tested on: K562
[27] = tested on: SK-MEL-28
[28] = tested on: KM12
[29] = tested on: KM-20L2
[30] = tested on: SK-MEL-2
[31] = tested on: HL-60
[32] = tested on: OVCAR-4
[33] = tested on: HCT-15
[34] = tested on: Malme-3M
[35] = tested on: NCI-H522
[36] = tested on: NCI-H226
[37] = tested on: NCI-H460
[38] = tested on: LXFL 529
[39] = tested on: SR
[40] = tested on: OVCAR-8
[41] = tested on: HOP-62
[42] = tested on: SF-295
[43] = tested on: HOP-92
[44] = tested on: SNB-78
[45] = tested on: CAKI-1
[46] = tested on: U-251
[47] = tested on: UO-31
[48] = tested on: SN12C
[49] = tested on: EKVX
[50] = tested on: UACC-257
[51] = tested on: UACC-62
[52] = tested on: DMS-273
[53] = tested on: SW-620
[54] = tested on: TK-10
[55] = tested on: MOLT-4
[56] = tested on: SK-MEL-5
[57] = tested on: ACHN
[58] = tested on: M19-MEL
[59] = tested on: RXF 631

Measured: GI50

C/C(CC(=O)Nc1ccc([N+](=O)[O-])cc1)=N\NC(N)=O
inactive: [1] > 100 µM | [2] > 100 µM | [3] > 100 µM | [4] > 100 µM | [5] > 45.8 µM | [6] > 100 µM | [7] > 44.6 µM | [8] > 100 µM | [9] > 100 µM | [10] > 100 µM | [11] > 57.8 µM | [12] > 76.6 µM | [13] > 100 µM | [14] > 77.8 µM | [15] > 100 µM | [16] > 100 µM | [17] > 100 µM | [18] > 100 µM | [19] > 64.7 µM | [20] > 46.1 µM | [21] > 100 µM | [22] > 55.6 µM | [23] > 100 µM | [24] 98.2 µM | [25] > 100 µM | [26] > 70.8 µM | [27] > 100 µM | [28] > 100 µM | [29] > 64.9 µM | [30] > 100 µM | [31] > 100 µM | [32] > 100 µM | [34] > 100 µM | [35] > 81.7 µM | [36] > 100 µM | [37] > 100 µM | [38] > 80.2 µM | [39] 24.4 µM | [40] > 44.4 µM | [41] > 100 µM | [42] > 100 µM | [43] > 100 µM | [44] > 100 µM | [45] > 100 µM | [46] > 100 µM | [47] > 100 µM | [48] > 100 µM | [49] > 100 µM | [50] > 100 µM | [51] > 71.3 µM | [52] > 66.5 µM | [53] > 100 µM | [54] > 100 µM | [55] > 100 µM | [56] > 68.7 µM | [57] > 100 µM | [58] > 100 µM
27 µM: [33]

Cc1ccccc1C1CC(c2ccccc2)=NO1 (stereo not drawn)
> 100 µM: [33]
inactive: [1] > 100 µM | [2] > 100 µM | [3] > 100 µM | [4] > 100 µM | [5] > 100 µM | [6] > 100 µM | [7] > 100 µM | [59] > 100 µM | [9] > 100 µM | [10] > 100 µM | [11] > 100 µM | [12] > 100 µM | [13] > 100 µM | [14] > 100 µM | [16] > 100 µM | [17] > 100 µM | [18] > 100 µM | [20] > 100 µM | [21] > 100 µM | [22] > 100 µM | [23] > 100 µM | [24] > 100 µM | [25] > 100 µM | [26] > 100 µM | [27] > 100 µM | [28] > 100 µM | [29] > 100 µM | [30] > 100 µM | [31] > 100 µM | [32] > 100 µM | [34] > 100 µM | [35] > 100 µM | [36] > 100 µM | [37] > 100 µM | [38] > 100 µM | [39] > 100 µM | [40] > 100 µM | [41] > 100 µM | [42] > 100 µM | [43] > 100 µM | [44] > 100 µM | [45] > 100 µM | [46] > 100 µM | [47] > 100 µM | [48] > 100 µM | [49] > 100 µM | [50] > 100 µM | [51] > 100 µM | [52] > 100 µM | [53] > 100 µM | [54] > 100 µM | [55] > 100 µM | [56] > 100 µM | [57] > 100 µM

O=C(/C=C\c1ccccc1O)c1ccc(O)cc1O
inactive: [1] > 100 µM | [2] > 100 µM | [3] > 100 µM | [5] > 100 µM | [6] > 100 µM | [7] 87.7 µM | [8] > 100 µM | [59] > 100 µM | [9] > 100 µM | [10] > 100 µM | [11] > 100 µM | [12] > 100 µM | [13] > 100 µM | [14] > 100 µM | [16] > 100 µM | [17] > 100 µM | [18] 55.7 µM | [19] > 100 µM | [20] 62.8 µM | [21] > 100 µM | [22] 28.6 µM | [23] > 100 µM | [24] > 100 µM | [25] > 100 µM | [26] > 100 µM | [27] > 100 µM | [28] > 100 µM | [29] > 100 µM | [30] > 100 µM | [31] 81.8 µM | [32] 54.6 µM | [34] > 100 µM | [35] > 100 µM | [36] > 100 µM | [37] > 100 µM | [38] > 100 µM | [39] > 100 µM | [40] > 100 µM | [41] > 100 µM | [42] > 100 µM | [43] > 100 µM | [44] > 100 µM | [45] > 100 µM | [46] > 100 µM | [47] > 100 µM | [48] > 100 µM | [49] > 100 µM | [50] > 100 µM | [51] > 100 µM | [52] > 100 µM | [53] 10.8 µM | [54] > 100 µM | [55] > 100 µM | [56] > 100 µM | [57] > 100 µM | [58] > 100 µM
> 100 µM: [33]
active: [4] 0.0128 µM

Cc1c(Cl)cccc1NC(=O)/C(Cl)=C(\Cl)C(=O)O
inactive: [1] 19.2 µM | [2] 16.9 µM | [3] 17 µM | [4] 18.7 µM | [5] 21.2 µM | [6] 19 µM | [7] 4.14 µM | [8] 19.9 µM | [59] 24.8 µM | [9] 18.9 µM | [10] 19.5 µM | [11] 14.2 µM | [12] 16.1 µM | [13] 45.1 µM | [14] 18.2 µM | [16] 19.5 µM | [17] 44.8 µM | [18] 17.5 µM | [19] 18.7 µM | [20] 11.8 µM | [21] 18.4 µM | [22] 9.4 µM | [23] 20.3 µM | [24] 22.6 µM | [25] 19.5 µM | [26] 6.19 µM | [27] 20.5 µM | [28] 17.3 µM | [29] 21.6 µM | [30] 19.8 µM | [32] 16.9 µM | [34] 17.8 µM | [35] 2.1 µM | [36] 20.7 µM | [37] > 100 µM | [38] 19.8 µM | [39] 5.26 µM | [41] 31.8 µM | [42] 19.4 µM | [43] 17.4 µM | [44] 20 µM | [45] 17.3 µM | [46] 18.5 µM | [47] 18.7 µM | [48] 17.4 µM | [49] > 10 µM | [50] 19.3 µM | [51] 13.2 µM | [52] 20.9 µM | [53] 19.4 µM | [54] 20.9 µM | [55] 7.43 µM | [56] 20.5 µM | [57] 17.5 µM | [58] 17 µM
16.4 µM: [33]

COc1ccc(/C=C/c2cc(OC)c(OC(C)=O)c(OC)c2)cc1
26.2 µM: [33]
inactive: [1] 26.5 µM | [2] 1.94 µM | [3] > 10 µM | [4] 18.5 µM | [5] 26.5 µM | [6] 41.2 µM | [7] 30.8 µM | [59] 36.1 µM | [9] 37.3 µM | [10] 36.8 µM | [11] 30.8 µM | [12] 34.6 µM | [14] 29.9 µM | [15] 34.5 µM | [16] 24.8 µM | [17] 25.1 µM | [20] 31.8 µM | [21] 33.7 µM | [22] 68.1 µM | [23] 20.7 µM | [24] 29.1 µM | [25] 20.7 µM | [27] 9.68 µM | [29] 35.1 µM | [30] 37.2 µM | [32] 45.9 µM | [34] 26.3 µM | [35] 19.5 µM | [36] 21.6 µM | [37] 22.1 µM | [38] 27.5 µM | [40] 22 µM | [41] 25.9 µM | [43] 28.1 µM | [44] 22 µM | [46] 17.5 µM | [47] 20.3 µM | [48] 24.3 µM | [49] 28.1 µM | [50] 20.7 µM | [51] 20.1 µM | [52] 31.2 µM | [55] 20.3 µM | [57] 33 µM | [58] 30.1 µM
